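Tested at 5 concentrations; 48 h exposure; 96-well plates; endpoints linearly interpolated, else capped at highest concentration. GI50 is the concentration that inhibits growth by half.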 The source made the active and inactive calls. Rule as the data show it: active = GI50 up to about 1.1 µM and inactive = higher.
Columns and labels:
Experiment in all cases: NCI-60 cell line screen, 48 h
UACC-257 = test system: UACC-257
MDA-MB-231 = test system: MDA-MB-231
MOLT-4 = test system: MOLT-4
SNB-19 = test system: SNB-19
HCT-116 = test system: HCT-116
HT-29 = test system: HT-29
IGROV-1 = test system: IGROV-1
SF-539 = test system: SF-539
SK-OV-3 = test system: SK-OV-3
CAKI-1 = test system: CAKI-1
A549 = test system: A549
KM12 = test system: KM12
DU-145 = test system: DU-145
NCI-H460 = test system: NCI-H460
RPMI-8226 = test system: RPMI-8226
OVCAR-3 = test system: OVCAR-3
NCI/ADR-RES = test system: NCI/ADR-RES
MCF7 = test system: MCF7
HL-60 = test system: HL-60
SW-620 = test system: SW-620

Row | SMILES | GI50 (UACC-257) | GI50 (MDA-MB-231) | GI50 (MOLT-4) | GI50 (SNB-19) | GI50 (HCT-116) | GI50 (HT-29) | GI50 (IGROV-1) | GI50 (SF-539) | GI50 (SK-OV-3) | GI50 (CAKI-1) | GI50 (A549) | GI50 (KM12) | GI50 (DU-145) | GI50 (NCI-H460) | GI50 (RPMI-8226) | GI50 (OVCAR-3) | GI50 (NCI/ADR-RES) | GI50 (MCF7) | GI50 (HL-60) | GI50 (SW-620)
1 | Oc1c(CN2CCN(c3ccccc3)CC2)cc(Br)c2cccnc12 | 2960 nM (inactive) | 2330 nM (inactive) | 349 nM (active) | 1690 nM (inactive) | 448 nM (active) | 10900 nM (inactive) | 834 nM (active) | 2070 nM (inactive) | 3210 nM (inactive) | 1210 nM (inactive) | 1430 nM (inactive) | 1560 nM (inactive) | 1630 nM (inactive) | 244 nM (active) | 361 nM (active) | 423 nM (active) | 206 nM (active) | 966 nM (active) | 485 nM (active) | 1400 nM (inactive)
2 | O=C(OCCC12CC3CC(CC(C3)C1)C2)c1ccc(NCc2cc(O)ccc2O)cc1 | 604 nM (active) | 1880 nM (inactive) | 262 nM (active) | 1260 nM (inactive) | 1260 nM (inactive) | 1940 nM (inactive) | 54.7 nM (active) | 652 nM (active) | 2910 nM (inactive) | 363 nM (active) | 2140 nM (inactive) | 690 nM (active) | 3300 nM (inactive) | 1510 nM (inactive) | 172 nM (active) | 239 nM (active) | 687 nM (active) | 557 nM (active) | 176 nM (active) | 1630 nM (inactive)
3 | S=C(NCc1ccccc1)N/N=C/c1ccccn1 | 2420 nM (inactive) | 1240 nM (inactive) | 61.2 nM (active) | 7930 nM (inactive) | 340 nM (active) | 743 nM (active) | 1580 nM (inactive) | 4600 nM (inactive) | 3940 nM (inactive) | 335 nM (active) | 4290 nM (inactive) | 4910 nM (inactive) | 3080 nM (inactive) | 2040 nM (inactive) | 118 nM (active) | 222 nM (active) | 1880 nM (inactive) | 834 nM (active) | 30.2 nM (active) | 1160 nM (inactive)
